According to patent US6441029B1, “Method of suppressing tumor growth with combinations of isoprenoids and statins” (Wisconsin Alumni Research Foundation, priority 1997, dated 2002):
Several values for one entry are separate records, joined by “and”; a condition that tells them apart may be missing. Equal entries are not always repeated. Where two headings read alike, the source gives them in different places. Marks after values point to notes of the source that are not given here. Values belong to the molecule of their own block, whether it stands above or below them.

Legend:
[1] = system: Murine B16(F10) melanoma cells; experiment: IC50 determinations: net increase in 48 hour melanoma cell count; type: cell-based
Method: (§1) Cultures, seeded with 1-1.5×10^5 cells, were incubated for 24 hours at 37° C. in a humidified atmosphere of 5% CO2. Isoprenoids, dissolved in absolute ethanol, were added at 24 hours (0 time); all cultures contained 5 mL ethanol/L ([…]). The cultures were incubated for an additional 48 hours. The media was removed and the monolayers were washed twice with Hanks' Balanced Salt Solution (Sigma) and then incubated with a trypsin-EDTA solution (Sigma) at 37° C. for 2 minutes. Trypsin was inactivated by suspending the cells in medium containing 10% fetal bovine serum (Sigma). The cells were pelleted at 250×g and resuspended in Hanks' Balanced Salt Solution. Viable cells, cells that excluded 0.4% trypan blue (GIPCOBRL), were counted with a hemocytometer; 24 hour cell counts were deducted from final cell counts to provide an estimate of the net increase in cell number.
FIG. 1 is a representative evaluation of the dose-dependent impact of five different tocols on the proliferation of melanoma B16 cells. Cultures (3 mL) seeded with 1-1.5×10^5 cells were incubated for 24 hours prior to the introduction of the tocols. Viable cells were counted at 48 hours following the addition of the tocols. The cell count at 24 hours (0 time) is shown by the dashed line. The intersection of the solid horizontal line and the line plotted for each tocol indicates the concentration at which the tocol suppressed by 50% the increase in cell number during the incubation (IC50 value). IC50 values (mean, SD and n) for all isoprenoids tested are listed on Table 1. […] The growth-suppressive potency of the individual tocotrienols was inverse to the number of methyl groups on the 6-chromanol ring: d-α-tocotrienol (methyl groups at carbons 5, 7, 8 and 2)<<d-γ-tocotrienol (methyl groups at carbons 7, 8 and 2)<d-δ-tocotrienol (methyl groups at carbons 8 and 2)<<d-2-desmethyl tocotrienol (no methyl groups) (Table 1).

B16 melanoma cells = experiment: Paired isoprenoids, 48 hour cell count (FIG. 2A, 2B); type: cell-based, Murine
Method: as §1
We next determined that the effects of the isoprenoids on the growth of B16 melanoma cells in culture are additive, and in some cases, synergistic. FIG. 2A illustrates the additive effects of γ-tocotrienol and β-ionone on B16 melanoma cell populations. Values are means±SD, n=28; pooled SEM=36 (×10^4). Cell counts calculated to show the decreased population relative to the control are listed on the insert table.
FIG. 2B illustrates the additive effects of carvacrol and β-ionone on B16 melanoma cell populations. Values are means±SD, n=28; pooled SEM=62 (×10^4). Cell counts calculated to show the decreased population relative to the control are listed in the inset table. ^a-hMeans not sharing a superscript (a>b>c>d>e>f>g>h) are different (P<0.001). Referring to FIG. 2, B16 melanoma cells were incubated with β-ionone and d-γ-tocotrienol in one test (FIG. 2A). d-γ-Tocotrienol (7.5 μmol/L) and β-ionone (50 μmol/L) reduced the 48 hour cell count by 19% and 10% respectively (FIG. 2A). The 34% reduction in cell number achieved with the paired isoprenoids exceeded the 29% reduction predicted by the sum of the individual effects (FIG. 2A, inset). At higher concentrations d-γ-tocotrienol (15 μmol/L) and β-ionone (100 μmol/L) reduced the 48 hour cell count by 34% and […] respectively; the additive effect, a 68% reduction in cell number, was also greater than the sum of the individual effects (59%) (FIG. 2A, inset).
Carvacrol (50 μmol/L) and β-ionone (75 μmol/L) reduced the 48 hour cell count by 25% and 31% respectively; the additive effect, a 48% reduction in cell number, was less than the 56% reduction predicted by the sum of the individual effects. Carvacrol (100 μmol/L) and β-ionone (150 μmol/L) reduced the cell count by 35% and 65% respectively; the additive effect, an 84% reduction in cell number, again was less than the 100% reduction predicted by the sum the individual effects (FIG. 2B, inset). The reduction in cell number predicted by the sum of the individual effects of the isoprenoids was highly correlated with that achieved with the paired isoprenoids (r=0.91, n=8, P<0.01).

[2] = system: implanted murine melanoma B16F10 tumors; details: cited from earlier work
B16(F10) melanoma = details: for retardation in tumor growth: 10 days prior to and 28 days following implantation, P<0.05
Method: The first examined the impact of a diet-relevant intake of d-γ-tocotrienol on the growth of B16(F10) melanomas in host mice. […] We first prepared a basal diet mix, patterned after the AIN-76A formulation (American Institute of Nutrition, 1977) but free of corn oil and dl-α-tocopherol. These ingredients and Vitamin E-stripped corn oil were purchased from Teklad Test Diets, Madison, Wis. Stock solutions of dl-α-tocopherol (80 μmol/g) and d-γ-tocotrienol (80 μmol/g) were prepared with vitamin E-stripped corn oil. Stock solutions of the tocols, diluted with vitamin E-stripped corn oil, were mixed with the basal diet to provide finished diets containing 5% corn oil and specified tocol concentrations. Where noted, β-ionone was added to the oil. The diets, mixed weekly, were stored under refrigeration. Food cups were cleaned and refilled daily.
Experiment 1: Weanling C57BL female mice (Harlan-Sprague Dawley, Madison, Wis.) were housed in groups of four on wood shavings in plastic cages and maintained at 25° C. with a 12 hour light-dark cycle. The four groups of mice (20/group) were fed experimental diets for 10 days prior to and for 28 days following the implantation of B16 melanoma cells. The split plot design consisted of four treatments comprised of two tocols, dl-α-tocopherol and d-γ-tocotrienol, each presented at two levels, 116 and 924 μmol/kg diet. This design permitted two comparisons of diets equal in tocol content and one comparison of diets about equal in d-α-tocopherol equivalents. […] We then corrected for the biological activity of the dl-α-tocopherol mixture (70% of the activity of d-α-tocopherol) in arriving at the 8:1 tocotrienol/tocopherol ratio used in formulating the experimental diets. Melanoma cells, cultured and harvested as previously, described (Shoff, et al., 1991), were washed twice with RPMI 1640 containing 10% Fetal Bovine Sera (GIBCOBRL). The pelleted cells were suspended in RPMI 1640 and counted (98% viable) after a 1:20 dilution in 0.4% trypan blue. The cells were further diluted in RPMI 1640 (1×10^8 cells/L) and 0.1 mL of the suspension (1×10^4 cells) was injected subcutaneously into the flank of each mouse. […] The mice were killed by CO2 overdose and the tumors were excised and weighed.
Statistical Methods: StatView and SuperANOVA software (Abacus Concepts, Berkeley, Calif.) were used for the assessment of treatment-mediated effects. Treatment-mediated differences in body and tumor weights, days to tumor appearance and days to morbidity were identified with split plot analysis of variance and pairwise t-tests of least squares means. Treatment-mediated differences in days to morbidity were also assessed using parametric (paired t-test) and nonparametric (Wilcoxon signed rank) tests (Haycock, et al., 1992).
The first dietary study evaluated the impact of d-γ-tocotrienol and dl-α-tocopherol on days to detection of a solid tumor and growth of implanted B16 melanomas.

[3] = system: Murine B16(F10) melanoma cells; details: L. He, et al., J. Nutr. 1997; read-out: IC50, proliferation of murine melanoma B16/F10 cells; cited from earlier work
[4] = system: established implanted B16 melanoma; experiment: Experiment 2: isoprenoid-enriched diets, survival of mice bearing established melanomas; type: in vivo, C57BL female mice; details: for Days survival, Mean / Days survival, Median: n = 12; for growth of established B16 melanomas: diet providing 7 μmol/d; for duration of host survival: experimental diets versus control, P<0.03
Method: Where noted, β-ionone was added to the oil. The diets, mixed weekly, were stored under refrigeration. Food cups were cleaned and refilled daily.
Experiment 2: Weanling female C57BL female mice (n=60, Harlan Sprague-Dawley) were acclimated to the housing conditions and AIN-76A diet (116 μmol dl-α-tocopherol/kg diet) as described above. Tumors were implanted and the mice continued to receive the AIN-76A diet. Beginning on day 8 post-implant the mice were palpated daily for the presence of a tumor. Tumors were first detected on day 14. Random numbers were generated for assigning each mouse in a sequential subset of five to a diet. Experimental treatments provided 2 and 4 mmol d-γ-tocotrienol/kg diet. We additionally tested the impact of β-ionone (2 mmol β-ionone/kg AIN-76A diet) and that of a blend of the two isoprenoids (2 mmol each/kg diet) on the survival of the mice.
We then asked if either dietary d-γ-tocotrienol or β-ionone would prolong the survival of mice bearing implanted melanomas. Dietary treatments were initiated following the detection of solid tumors. We also asked whether these structurally diverse isoprenoids would have an additive effect on survival. The experimental groups were constructed by random assignment of each member of successive subsets of 5 mice to one of the experimental diets. […] Treatments increased median duration of survival by 42±4.5% and the mean duration of survival by 30% (P<0.005); differences between duration of survival means of the experimental groups were not significant (Table 3, FIG. 3). FIG. 3 is a survival curve for host mice receiving isoprenoid-enriched diets following the detection of a solid implanted B16 melanoma. Mean survival durations are presented on Table 4. β-ionone and γ-tocotrienol^1 treatments provided 2 mmol of the isoprenoid/kg diet; the blend provided 2 mmol of each isoprenoid/kg diet; and γ-tocotrienol^2 provided 4 mmol γ-tocotrienol/kg diet.

[5] = system: murine melanoma B16/F10 cells; experiment: In vitro growth assays of lovastatin, β-ionone and γ-tocotrienol alone and combined (Table 5); type: cell-based
[6] = ubiquinone given to patients receiving 30 mg/kg or higher doses of lovastatin; cited from earlier work
implanted 216 melanomas = details: massive intake, 733 μmol/d; Meadows, et al., 1991; cited from earlier work
[7] = 48 hour incubation; means ± SD; read-out: IC50: concentration required to suppress the increase in the population of melanoma cells by 50% during a 48 hour incubation
[8] = read-out: IC50: concentration required to suppress the increase in the population of melanoma cells by 50% during a 48 hour incubation; 48 hour incubation; means ± SD

- IC50 [1, 7]: 250 µM
SMILES: C=C(C)[C@@H]1CC=C(CO)CC1 [Perillyl alcohol, [R]4-isopropenyl-1-methanol-cyclohexene]

- IC50 [1, 7]: 150 ± 19 µM
SMILES: CC(C)=CCC/C(C)=C/CO [Geraniol, trans 3,7-dimethyl-2,6-octadien-1-ol]

SMILES: CC(C)=CCCC(C)=CCCC(C)=CCCC1(C)CCc2cc(O)c(C)c(C)c2O1 (stereo not drawn) [d-γ-Tocotrienol, 2,7,8-trimethyl-2-(4,8,12-trimethyltrideca-3,7,11-trienyl)-chroman-6-ol]
- reduction of 48 hour cell count (B16 melanoma cells; 7.5 μmol/L): 19%
- reduction of 48 hour cell count (B16 melanoma cells; 15 μmol/L): 34%
- growth of implanted murine melanoma B16F10 tumors ([2]; 116-2000 μmol/kg diet): suppressed
- retardation in tumor growth (B16(F10) melanoma; 116 μmol/kg diet, isomolar substitution for dl-α-tocopherol in AIN-76A diet): 36%
- retardation in tumor growth (B16(F10) melanoma; 928 μmol/kg diet, Vitamin E-equivalent substitution for dl-α-tocopherol in AIN-76A diet): 50%
- days post-implant to tumor detection (B16(F10) melanoma; 928 μmol/kg diet, least mean squares analysis): differed significantly from the effects of the other treatments
- 28 day tumor weight, least mean squares analyses (B16(F10) melanoma; 116 and 928 μmol/kg diet): tumor growth-suppressive action
- growth of the B16 melanoma implanted in the flank of host mice (B16(F10) melanoma; diet providing an intake of 0.4 μmol/d (diet-relevant intake)): suppressed
- suppression of tumor growth (B16(F10) melanoma; diet providing only the d-α-tocopherol-equivalent of the AIN-76A diet): highly significant suppression
- IC50 [3]: 20 µM
- further change in duration of survival on doubling the intake ([4]; 14 μmol/d versus 7 μmol/d, P=0.95): -0.21 days
- Days survival, Mean ([4]; 2 mmol/kg diet): 18.67^a Days
- Days survival, Median ([4]; 2 mmol/kg diet): 20.0 days
- Days survival, Mean ([4]; 4 mmol/kg diet): 18.46^a Days
- Days survival, Median ([4]; 4 mmol/kg diet): 22.0 days
- growth of established B16 melanomas [4]: suppressed
- increase in duration of survival ([4]; diet providing an intake of 7 μmol/d): 35%
- duration of host survival [4]: significantly increased
- Growth ([5]; 5 μmol/L): 90 % of Control
- Growth ([5]; 7.5 μmol/L): 81 % of Control
- Growth ([5]; 10 μmol/L): 85 % of Control and 72 % of Control
- Growth ([5]; 15 μmol/L): 66 % of Control and 77 % of Control
- Growth ([5]; 20 μmol/L): 65 % of Control
- IC50 [1, 8]: 20 µM

SMILES: Cc1c(C)c2c(c(C)c1O)CCC(C)(CCCC(C)CCCC(C)CCCC(C)C)O2 (stereo not drawn) [d1-α-Tocopherol, 2,5,7,8-tetramethyl-2-(4,8,12-trimethyltridecyl)-chroman-6-ol]
- body weight at the time of tumor implant (B16(F10) melanoma; mouse, in vivo): significantly lower
- IC50 [1, 8]: > 1600 µM
- impact on cell number (FIG. 1) ([1]; viable cells at 48 hours after addition): no impact on cell number

- IC50 [1, 7]: 110 µM
SMILES: CC(C)=CCCC(C)=CCCC(C)=CCCC1(C)CCc2c(C)c(O)c(C)c(C)c2O1 (stereo not drawn) [d-α-Tocotrienol, 2,5,7,8-tetramethyl-2-(4,8,12-trimethyltrideca-3,7,11-trienyl)-chroman-6-ol]

- IC50 [1, 7]: 120 ± 15 µM
SMILES: Cc1ccc(C(C)C)c(O)c1 [Thymol, 5-methyl-2-isopropylphenol]

- IC50 [1, 7]: 0.9 µM
SMILES: CC(C)=CCCC(C)=CCCC(C)=CCCC1CCc2cc(O)ccc2O1 (stereo not drawn) [d-2-desmethyl Tocotrienol, 2-(4,8,12-trimethyltrideca-3,7,11-trienyl)-chroman-6-ol]

- IC50 [1, 7]: 450 µM
SMILES: C=C(C)[C@H]1CC=C(C)CC1 [d-Limonene, [R]4-isopropenyl-1-methyl-1-cyclohexene]

SMILES: COC1=C(OC)C(=O)C(C/C=C(\C)CC/C=C(\C)CC/C=C(\C)CC/C=C(\C)CC/C=C(\C)CC/C=C(\C)CC/C=C(\C)CC/C=C(\C)CC/C=C(\C)CCC=C(C)C)=C(C)C1=O [Ubiquinone]
- incidence of musculoskeletal toxicity of lovastatin [6]: did not decrease
- severity of musculoskeletal toxicity of lovastatin [6]: significantly decreased

- IC50 [1, 7]: 10 µM
SMILES: CC(C)=CCCC(C)=CCCC(C)=CCCC1(C)CCc2cc(O)cc(C)c2O1 (stereo not drawn) [d-δ-Tocotrienol, 2,8-dimethyl-2-(4,8,12-trimethyltrideca-3,7,11-trienyl)-chroman-6-ol]

SMILES: C=C(C)C1CC=C(C=O)CC1 (stereo not drawn) [Perillaldehyde, [R]-4-isopropenyl-1-carboxaldehyde cyclohexene]
- IC50 [1, 8]: 120 ± 17 µM

- IC50 [1, 7]: 50 µM
SMILES: CC(C)=CCC/C(C)=C/CC/C(C)=C/CO [Farnesol, trans, trans 3,7,11-trimethyl-2,6,10 dodecatrien-1-ol]

SMILES: CC(=O)C=CC1=C(C)CCCC1(C)C [β-Ionone]
- reduction of 48 hour cell count (B16 melanoma cells; 50 μmol/L): 10%
- reduction of 48 hour cell count (B16 melanoma cells; 75 μmol/L): 31%
- reduction of 48 hour cell count (B16 melanoma cells; 100 μmol/L): 16%
- reduction of 48 hour cell count (B16 melanoma cells; 150 μmol/L): 65%
- growth of implanted murine melanoma B16F10 tumors ([2]; 2 mmol/kg diet): suppressed
- IC50 [3]: 140 µM
- Days survival, Mean ([4]; 2 mmol/kg diet): 18.27^a Days
- Days survival, Median ([4]; 2 mmol/kg diet): 23.0 days
- growth of established B16 melanomas [4]: suppressed
- duration of host survival [4]: significantly increased
- Growth ([5]; 50 μmol/L): 90 % of Control
- Growth ([5]; 100 μmol/L): 84 % of Control
- decrease in cell growth ([5]; 150 μM): 32%
- Growth ([5]; 150 μmol/L): 68 % of Control
- IC50 [1, 7]: 140 ± 23 µM

SMILES: Cc1ccc(C(C)C)cc1O [Carvacrol, 5-isopropyl-2-methylphenol, reference compound]
- reduction of 48 hour cell count (B16 melanoma cells; 50 μmol/L): 25%
- reduction of 48 hour cell count (B16 melanoma cells; 100 μmol/L): 35%
- IC50 [1, 8]: 120 ± 15 µM

SMILES: O=C1O[C@H]([C@@H](O)CO)C(O)=C1O [ascorbic acid]
- growth of implanted melanomas (implanted 216 melanomas): suppressed
